Where two headings read alike, the source gives them in different places.
Columns and labels:
SbnE [1] = biological target: T1, SbnE (Staphylococcus aureus, UniProt Q2G1M9); assay: biochemical
AsbA [2] = biological target: T2, AsbA (Bacillus anthracis, UniProt A0A0F7RJ52); assay: biochemical
AsbB = AsbB (Bacillus anthracis, UniProt Q81RQ8); assay: biochemical; format: biochemical
S. aureus (Newman) = assay: microbe, parasite or virus in culture; format: cell-based; conditions: for IC50: Staphylococcus aureus, NEWMAN, 8 h
[3] = system: B. anthracis (Sterne 34F2); assay: microbe, parasite or virus in culture; format: cell-based; conditions: for IC50: Bacillus anthracis
SbnE [4] = biological target: T1, SbnE; assay: biochemical; format: biochemical, S. aureus; conditions: for Ki: inhibition constant (Ki) SbnE
AsbA [5] = biological target: T2, AsbA; assay: biochemical; format: biochemical, B. anthracis; conditions: for Ki: inhibition constant (Ki) AsbA
MRSA (USA 300) = assay: microbe, parasite or virus in culture; format: cell-based, methicillin-resistant Staphylococcus aureus; conditions: Staphylococcus aureus
S. typhimurium = assay: microbe, parasite or virus in culture; format: cell-based; conditions: Salmonella enterica
E. coli (MC 1061) = assay: microbe, parasite or virus in culture; format: cell-based; conditions: Escherichia coli
S. flexneri (BS103) = assay: microbe, parasite or virus in culture; format: cell-based; conditions: Shigella flexneri

T2 sequence (A0A0F7RJ52 whole entry, looked up): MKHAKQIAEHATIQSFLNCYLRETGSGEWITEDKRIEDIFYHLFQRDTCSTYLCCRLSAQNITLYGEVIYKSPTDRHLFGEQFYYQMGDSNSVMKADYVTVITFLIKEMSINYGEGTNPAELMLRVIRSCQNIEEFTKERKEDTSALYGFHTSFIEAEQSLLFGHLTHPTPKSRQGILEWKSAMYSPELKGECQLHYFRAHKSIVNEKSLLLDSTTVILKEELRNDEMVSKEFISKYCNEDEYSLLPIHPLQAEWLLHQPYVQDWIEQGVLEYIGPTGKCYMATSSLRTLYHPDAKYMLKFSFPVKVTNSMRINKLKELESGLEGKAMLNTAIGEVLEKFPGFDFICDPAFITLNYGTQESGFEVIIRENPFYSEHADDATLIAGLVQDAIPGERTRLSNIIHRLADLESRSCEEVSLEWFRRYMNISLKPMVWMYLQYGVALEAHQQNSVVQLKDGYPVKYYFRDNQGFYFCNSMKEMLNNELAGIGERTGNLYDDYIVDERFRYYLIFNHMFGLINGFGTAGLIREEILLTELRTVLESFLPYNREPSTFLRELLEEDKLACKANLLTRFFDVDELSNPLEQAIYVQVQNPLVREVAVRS
Chain of AsbB (Q81RQ8 whole entry, looked up): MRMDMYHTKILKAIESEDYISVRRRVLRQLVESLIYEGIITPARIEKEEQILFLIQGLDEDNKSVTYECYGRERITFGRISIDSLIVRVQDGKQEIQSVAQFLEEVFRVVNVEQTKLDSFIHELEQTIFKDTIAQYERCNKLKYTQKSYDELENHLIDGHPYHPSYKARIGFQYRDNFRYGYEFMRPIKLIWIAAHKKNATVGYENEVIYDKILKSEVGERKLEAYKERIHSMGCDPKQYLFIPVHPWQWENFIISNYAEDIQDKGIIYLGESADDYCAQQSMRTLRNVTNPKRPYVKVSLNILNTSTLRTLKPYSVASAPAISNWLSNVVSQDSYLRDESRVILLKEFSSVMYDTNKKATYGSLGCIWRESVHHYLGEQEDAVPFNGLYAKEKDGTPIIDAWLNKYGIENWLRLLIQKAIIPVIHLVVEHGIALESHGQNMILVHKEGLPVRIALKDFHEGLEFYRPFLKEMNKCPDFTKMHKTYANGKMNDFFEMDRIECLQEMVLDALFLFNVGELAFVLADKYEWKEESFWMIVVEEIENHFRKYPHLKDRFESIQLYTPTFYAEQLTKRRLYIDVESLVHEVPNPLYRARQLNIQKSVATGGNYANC
T1 sequence (Q2G1M9 whole entry): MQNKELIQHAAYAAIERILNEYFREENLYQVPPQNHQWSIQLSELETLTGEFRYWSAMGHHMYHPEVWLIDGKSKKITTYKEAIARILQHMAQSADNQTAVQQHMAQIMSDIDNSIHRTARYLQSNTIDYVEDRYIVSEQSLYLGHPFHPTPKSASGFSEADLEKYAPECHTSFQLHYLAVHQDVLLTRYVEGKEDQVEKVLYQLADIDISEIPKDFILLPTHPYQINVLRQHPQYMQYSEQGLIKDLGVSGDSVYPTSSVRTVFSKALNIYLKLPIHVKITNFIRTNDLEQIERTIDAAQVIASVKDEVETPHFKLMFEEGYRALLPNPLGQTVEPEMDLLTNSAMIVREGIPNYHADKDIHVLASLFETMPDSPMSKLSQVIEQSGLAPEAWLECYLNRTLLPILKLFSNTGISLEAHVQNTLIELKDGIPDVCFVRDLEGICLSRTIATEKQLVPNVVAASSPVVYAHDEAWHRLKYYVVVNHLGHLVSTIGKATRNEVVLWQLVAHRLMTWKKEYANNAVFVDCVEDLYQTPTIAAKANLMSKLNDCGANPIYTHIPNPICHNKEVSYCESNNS

**Q.** CC(=O)[C@@H](C)C[C@@H](C)C[C@@H](C)CC[C@H](O)C[C@H](O)[C@H](CC(C)C)[C@H](O)c1cc(O)cc(O)c1 [BmcB, Baulamycin B] was tested. Which IC50 (SbnE [1]) did it give?
**A.** The IC50 was 19 µM.

**Q.** And the IC50 (AsbA [2])?
**A.** Its IC50 is 200 µM.

**Q.** And the IC50 (AsbB)?
**A.** The IC50 was > 1 mM.

**Q.** And the “inhibition against AsbB (in words)” value (AsbB)?
**A.** Its value is “negligible”.

**Q.** And the “potency against S. aureus (Newman) compared with BmcA (in words)” value (S. aureus (Newman))?
**A.** Its value is “significantly less potent”.

**Q.** What about the “potency against B. anthracis (Sterne 34F2) compared with BmcA (in words)” value [3] of the same compound?
**A.** The value was “significantly less potent”.

**Q.** Which IC50 (SbnE [1]) does the source give for CCC(=O)[C@@H](C)C[C@@H](C)C[C@@H](C)CC[C@H](O)C[C@H](O)[C@H](CC(C)C)[C@H](O)c1cc(O)cc(O)c1 [BmcA, Baulamycin A] here?
**A.** Its IC50 is 4.8 µM.

**Q.** And the IC50 (AsbA [2])?
**A.** Its IC50 is 180 µM.

**Q.** What about the IC50 (AsbB) of the same compound?
**A.** The IC50 was > 1 mM.

**Q.** And the “inhibition against AsbB (in words)” value (AsbB)?
**A.** The value was “negligible”.

**Q.** What about the “mechanism of inhibition of SbnE” value (SbnE [4]) of the same compound?
**A.** The value was “reversible, competitive”.

**Q.** And the Ki (SbnE [4]; ATP)?
**A.** Its Ki is 680 µM.

**Q.** And the Ki (SbnE [4]; citric acid)?
**A.** The Ki was 50 µM.

**Q.** What about the Ki (SbnE [4]; polyamine substrate) of the same compound?
**A.** Its Ki is 210 µM.

**Q.** What about the “mechanism of inhibition of AsbA” value (AsbA [5]) of the same compound?
**A.** Its value is “reversible, competitive”.

**Q.** What about the Ki (AsbA [5]; ATP) of the same compound?
**A.** The Ki was 230 µM.

**Q.** What about the Ki (AsbA [5]; citric acid) of the same compound?
**A.** The Ki was 110 µM.

**Q.** And the Ki (AsbA [5]; polyamine substrate)?
**A.** The Ki was 170 µM.

**Q.** And the IC50 (S. aureus (Newman); read-out: IDM IC50)?
**A.** The IC50 was 69 µM.

**Q.** And the IC50 (S. aureus (Newman); read-out: IRM IC50)?
**A.** The IC50 was 86 µM.

**Q.** What about the IC50 (MRSA (USA 300); read-out: IDM IC50) of the same compound?
**A.** The IC50 was 130 µM.

**Q.** And the IC50 (MRSA (USA 300); read-out: IRM IC50)?
**A.** Its IC50 is 130 µM.

**Q.** And the IC50 ([3]; read-out: IDM IC50)?
**A.** Its IC50 is 110 µM.

**Q.** And the IC50 ([3]; read-out: IRM IC50)?
**A.** The IC50 was 120 µM.

**Q.** What about the IC50 (S. typhimurium; read-out: IC50, iron-depleted conditions) of the same compound?
**A.** Its IC50 is > 1 mM.

**Q.** And the IC50 (S. typhimurium; read-out: IC50, iron-rich conditions)?
**A.** The IC50 was > 1 mM.

**Q.** And the IC50 (S. typhimurium; read-out: IDM IC50)?
**A.** Its IC50 is > 1 mM.

**Q.** What about the IC50 (S. typhimurium; read-out: IRM IC50) of the same compound?
**A.** Its IC50 is > 1 mM.

**Q.** What about the IC50 (E. coli (MC 1061); read-out: IDM IC50) of the same compound?
**A.** Its IC50 is 4.2 µM.

**Q.** What about the IC50 (E. coli (MC 1061); read-out: IRM IC50) of the same compound?
**A.** The IC50 was 150 µM.

**Q.** And the IC50 (S. flexneri (BS103); read-out: IDM IC50)?
**A.** Its IC50 is 20 µM.

**Q.** And the IC50 (S. flexneri (BS103); read-out: IRM IC50)?
**A.** Its IC50 is 46 µM.

Reference: patent US9803187B2 (priority 2014, dated 2017)
